In patent US7759337B2, “Phthalazine compounds and methods of use” (Amgen Inc., priority 2005, dated 2010):

Tested on: production of TNF by monocytes activated with bacterial lipopolysaccharide (LPS)
Assay: Lipopolysaccharide-activated monocyte TNF production assay
Format: cell-based
Settings: Homo sapiens; whole blood monocyte assay (LPS induced TNF release)
Outline: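 Adherent human PBMC-derived monocytes preincubated 60 min with nine two-fold compound dilutions, then stimulated with E. coli K532 LPS (30 ng/mL in the added medium) for 4 h at 37 °C. Supernatant TNF measured by sandwich ELISA; IC50 is the compound concentration halving TNF production, from second-order polynomial fits.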

Row | Structure (SMILES) | IC50 [µM]
1 | COc1ccc(-c2nncc3cc(-c4cc(C(N)=O)ccc4C)ccc23)c(OC)c1 [Example 226, 3-[1-(2,4-dimethoxyphenyl)phthalazin-6-yl]-4-methylbenzamide] | ≤ 5
2 | Cc1ccc(C(N)=O)cc1-c1ccc2c(-c3ccc(OC(C)C)cc3C)nncc2c1 [Example 227, 3-[1-(4-isopropoxy-2-methylphenyl)phthalazin-6-yl]-4-methylbenzamide] | ≤ 5
3 | COc1ncccc1-c1nncc2cc(-c3cc(C(N)=O)ccc3C)ccc12 [Example 228, 3-[1-(2-methoxypyridin-3-yl)phthalazin-6-yl]-4-methylbenzamide] | ≤ 5
4 | COc1ccc(-c2nncc3cc(-c4cc(C(N)=O)ccc4C)ccc23)c(Cl)c1 [Example 229, 3-[1-(2-chloro-4-methoxyphenyl)phthalazin-6-yl]-4-methylbenzamide] | ≤ 5
5 | COc1ncccc1-c1nncc2cc(-c3cc(C(=O)NC4CC4)ccc3C)ccc12 [Example 230, N-cyclopropyl-3-[1-(2-methoxypyridin-3-yl)phthalazin-6-yl]-4-methylbenzamide] | ≤ 5
6 | CCOc1ccc(-c2nncc3cc(-c4cc(C(N)=O)ccc4C)ccc23)c(Cl)c1 [Example 231, 3-[1-(2-chloro-4-ethoxyphenyl)phthalazin-6-yl]-4-methylbenzamide] | ≤ 5
7 | Cc1ccc(C(N)=O)cc1-c1ccc2c(-c3ccc(Cl)cc3C)nncc2c1 [Example 232, 3-[1-(4-chloro-2-methylphenyl)phthalazin-6-yl]-4-methylbenzamide] | ≤ 5
8 | Cc1ccc(C(=O)NC2CC2)cc1-c1ccc2c(-c3cccnc3Cl)nncc2c1 [Example 233, 3-[1-(2-chloropyridin-3-yl)phthalazin-6-yl]-N-cyclopropyl-4-methylbenzamide] | ≤ 5
9 | COc1ncc(-c2nncc3cc(-c4cc(C(=O)NC5CC5)ccc4C)ccc23)c(OC)n1 [Example 234, N-cyclopropyl-3-[1-(2,4-dimethoxypyrimidin-5-yl)phthalazin-6-yl]-4-methylbenzamide] | ≤ 5
10 | Cc1ccc(-c2nncc3cc(-c4cc(C(=O)NC5CC5)ccc4C)ccc23)c(Cl)c1 [Example 235, 3-[1-(2-chloro-4-methylphenyl)phthalazin-6-yl]-N-cyclopropyl-4-methylbenzamide] | ≤ 5
11 | Cc1ccc(C(N)=O)cc1-c1ccc2c(-c3ccc(S(N)(=O)=O)cc3C)nncc2c1 [Example 236, 3-{1-[4-(aminosulfonyl)-2-methylphenyl]phthalazin-6-yl}-4-methylbenzamide] | ≤ 5
12 | COc1ccc(-c2nncc3cc(-c4cc(C(N)=O)ccc4C)ccc23)c(C(F)(F)F)c1 [Example 237, 3-{1-[4-methoxy-2-(trifluoromethyl)phenyl]phthalazin-6-yl}-4-methylbenzamide] | ≤ 5
13 | CCOc1cc(Cl)ccc1-c1nncc2cc(-c3cc(C(N)=O)ccc3C)ccc12 [Example 238, 3-[1-(4-chloro-2-ethoxyphenyl)phthalazin-6-yl]-4-methylbenzamide] | ≤ 5
14 | Cc1ccc(C(=O)NC2CC2)cc1-c1ccc2c(-c3ccc(F)cc3)nncc2c1 [Example 239, N-cyclopropyl-3-[1-(4-fluorophenyl)phthalazin-6-yl]-4-methylbenzamide] | ≤ 5
15 | Cc1ccc(C(=O)NC2CC2)cc1-c1ccc2c(-c3ccc(CC(=O)O)cc3)nncc2c1 [Example 240, [4-(6-{5-[(cyclopropylamino)carbonyl]-2-methylphenyl}phthalazin-1-yl)phenyl]acetic acid] | ≤ 5
16 | Cc1ccc(C(=O)NC2CC2)cc1-c1ccc2c(-c3cccnc3C)nncc2c1 [Example 241, N-cyclopropyl-4-methyl-3-[1-(2-methylpyridin-3-yl)phthalazin-6-yl]benzamide] | ≤ 5
17 | COc1ccc(-c2nncc3cc(-c4cc(C(=O)NC5CC5)ccc4C)ccc23)c(C)c1 [Example 242, N-cyclopropyl-3-[1-(4-methoxy-2-methylphenyl)phthalazin-6-yl]-4-methylbenzamide] | ≤ 5
18 | Cc1ccc(C(N)=O)cc1-c1ccc2c(-c3ccc([S+](C)[O-])cc3C)nncc2c1 (stereo not drawn) [Example 243, 4-methyl-3-{1-[2-methyl-4-(methylsulfinyl)phenyl]phthalazin-6-yl}benzamide] | ≤ 5
19 | Cc1ccc(C(=O)NC2CC2)cc1-c1ccc2c(-c3cccs3)nncc2c1 [Example 244, N-cyclopropyl-4-methyl-3-(1-thien-2-ylphthalazin-6-yl)benzamide] | ≤ 5
20 | Cc1ccc(C(=O)NC2CC2)cc1-c1ccc2c(-c3ccc(OC(F)(F)F)cc3)nncc2c1 [Example 245, N-cyclopropyl-4-methyl-3-{1-[4-(trifluoromethoxy)phenyl]phthalazin-6-yl}benzamide] | ≤ 5
21 | Cc1ccc(C(=O)NC2CC2)cc1-c1ccc2c(-c3ccccc3F)nncc2c1 [Example 246, N-cyclopropyl-3-[1-(2-fluorophenyl)phthalazin-6-yl]-4-methylbenzamide] | ≤ 5

Row | Structure (SMILES) | IC50 [µM]
22 | CNc1noc2c(-c3ccc4c(-c5cccnc5C)nncc4c3)c(C)ccc12 [Example 247, N,6-dimethyl-7-[1-(2-methylpyridin-3-yl)phthalazin-6-yl]-1,2-benzisoxazol-3-amine] | ≤ 5
23 | COc1c(F)cccc1-c1nncc2cc(-c3cc(C(=O)NC4CC4)ccc3C)ccc12 [Example 248, N-cyclopropyl-3-[1-(3-fluoro-2-methoxyphenyl)phthalazin-6-yl]-4-methylbenzamide] | ≤ 5
24 | Cc1ccc(C(=O)NC2CC2)cc1-c1ccc2c(-c3ccc(C(F)(F)F)cc3)nncc2c1 [Example 249, N-cyclopropyl-4-methyl-3-{1-[4-(trifluoromethyl)phenyl]phthalazin-6-yl}benzamide] | ≤ 5
25 | Cc1ccc(C(=O)NC2CC2)cc1-c1ccc2c(-c3ccccc3)nncc2c1 [Example 250, N-cyclopropyl-4-methyl-3-(1-phenylphthalazin-6-yl)benzamide] | ≤ 5
26 | CCc1ccccc1-c1nncc2cc(-c3cc(C(=O)NC4CC4)ccc3C)ccc12 [Example 251, N-cyclopropyl-3-[1-(2-ethylphenyl)phthalazin-6-yl]-4-methylbenzamide] | ≤ 5
27 | COc1cc(-c2nncc3cc(-c4cc(C(N)=O)ccc4C)ccc23)c(C)cn1 [Example 252, 3-[1-(2-methoxy-5-methylpyridin-4-yl)phthalazin-6-yl]-4-methylbenzamide] | ≤ 5
28 | Cc1ccc(C(=O)NC2CC2)cc1-c1ccc2c(-c3ccc(C(C)(C)C)cc3)nncc2c1 [Example 253, 3-[1-(4-tert-butylphenyl)phthalazin-6-yl]-N-cyclopropyl-4-methylbenzamide] | ≤ 5
29 | Cc1ccc(C(=O)NC2CC2)cc1-c1ccc2c(-c3ccccc3C(F)(F)F)nncc2c1 [Example 254, N-cyclopropyl-4-methyl-3-{1-[2-(trifluoromethyl)phenyl]phthalazin-6-yl}benzamide] | ≤ 5
30 | Cc1ccc(C(N)=O)cc1-c1ccc2c(-c3cccnc3C)nncc2c1 [Example 255, 4-methyl-3-[1-(2-methylpyridin-3-yl)phthalazin-6-yl]benzamide] | ≤ 5
31 | Cc1ccc(C(=O)NC2CC2)cc1-c1ccc2c(-c3ccc(S(C)(=O)=O)cc3C)nncc2c1 [Example 256, N-cyclopropyl-4-methyl-3-{1-[2-methyl-4-(methylsulfonyl)phenyl]phthalazin-6-yl}benzamide] | ≤ 5
32 | Cc1ccc(C(=O)NC2CC2)cc1-c1ccc2c(-c3ccc(Cl)cc3C)nncc2c1 [Example 257, 3-[1-(4-chloro-2-methylphenyl)phthalazin-6-yl]-N-cyclopropyl-4-methylbenzamide] | ≤ 5
33 | COc1ccc(-c2nncc3cc(-c4cc(C(=O)NC5CC5)ccc4C)ccc23)c(C(F)(F)F)c1 [Example 258, N-cyclopropyl-3-{1-[4-methoxy-2-(trifluoromethyl)phenyl]phthalazin-6-yl}-4-methylbenzamide] | ≤ 5
34 | Cc1ccc(C(N)=O)cc1-c1ccc2c(-c3cc(F)ncc3C)nncc2c1 [Example 259, 3-[1-(2-fluoro-5-methylpyridin-4-yl)phthalazin-6-yl]-4-methylbenzamide] | ≤ 5
35 | CSc1ccc(-c2nncc3cc(-c4cc(C(N)=O)ccc4C)ccc23)c(C)c1 [Example 260, 4-methyl-3-{1-[2-methyl-4-(methylsulfanyl)phenyl]phthalazin-6-yl}benzamide] | ≤ 5
36 | CSc1ccc(-c2nncc3cc(-c4cc(C(=O)NC5CC5)ccc4C)ccc23)c(C)c1 [Example 261, N-cyclopropyl-4-methyl-3-{1-[2-methyl-4-(methylsulfanyl)phenyl]phthalazin-6-yl}benzamide] | ≤ 5
37 | COc1cc(F)ccc1-c1nncc2cc(-c3cc(C(=O)NC4CC4)ccc3C)ccc12 [Example 262, N-cyclopropyl-3-[1-(4-fluoro-2-methoxyphenyl)phthalazin-6-yl]-4-methylbenzamide] | ≤ 5
38 | Cc1ccc(C(=O)NC2CC2)cc1-c1ccc2c(-c3ccncc3C)nncc2c1 [Example 263, N-cyclopropyl-4-methyl-3-[1-(3-methylpyridin-4-yl)phthalazin-6-yl]benzamide] | ≤ 5
39 | COc1ncc(-c2nncc3cc(-c4cc(C(=O)NC5CC5)ccc4C)ccc23)cn1 [Example 264, N-cyclopropyl-3-[1-(2-methoxypyrimidin-5-yl)phthalazin-6-yl]-4-methylbenzamide] | ≤ 5
40 | Cc1ccc(C(=O)N(C)C)cc1-c1ccc2c(N3CCOCC3)nncc2c1 [Example 265, N,N,4-trimethyl-3-(1-morpholin-4-ylphthalazin-6-yl)benzamide] | ≤ 5
41 | Cc1ccc(C(=O)NC2CC2)cc1-c1ccc2c(N3CCCOCC3)nncc2c1 [Example 266, N-cyclopropyl-4-methyl-3-[1-(1,4-oxazepan-4-yl)phthalazin-6-yl]benzamide] | ≤ 5
42 | Cc1ccc(C(=O)NC2CC2)cc1-c1ccc2c(N3CCN4C(=O)CC[C@@H]4C3)nncc2c1 [Example 267, 3-{1-[(8aR)-6-oxohexahydropyrrolo[1,2-a]pyrazin-2(1H)-yl]phthalazin-6-yl}-N-cyclopropyl-4-methylbenzamide] | ≤ 5
